Results as given in patent publication US11739089B2, “Acetamido-phenyltetrazole derivatives and methods of using the same” (Athenex, Inc., priority 2020, dated 2023).
Like-named read-outs stand apart in the source and are kept apart here.

Columns and labels:
P-glycoprotein = P-glycoprotein (Homo sapiens (Human), UniProt P08183); assay: P-glycoprotein inhibitory activity: MTT cell growth assay in P-gp overexpressing MES-SA/DX5 cells with docetaxel or paclitaxel; type: cell-based; details: 3 days, with 100 nM docetaxel or 200 nM paclitaxel, MTT readout
Experimental: P-glycoprotein inhibitory activity may be determined by an assay wherein P-glycoprotein overexpressed cell lines are treated with increasing concentrations of a compound of the present disclosure and therapeutic agent for three days, followed by an MTT assay.
Cell growth percentage may be calculated with the following equation: Cell growth percentage=(T−T0)/(C−T0)×100%, wherein T is OD of the test well exposure to Compound; C is OD of the control well without Compound treatment; and T0 is OD at time zero.
A P-glycoprotein overexpressing cell line derived from the human uterine sarcoma cell line MES-SA (i.e., MES-SA/DX5 cells (ATCC)) was seeded by stepwise exposures to increasing concentrations of doxorubicin, in a 96-well plate at 6,500 cells/100 μL media (McCoy's 5A+10% FBS) in each well. The cells were incubated overnight at 37° C. 5% CO2. Compounds were diluted in a separate 96-well plate to yield 11× of final concentration (final Compound concentrations were 0, 5, 20, 80, 320, and 1280 nM and the final docetaxel concentration was 100 nM or the final paclitaxel concentration was 200 nM). DMSO was used as a negative control and known P-glycoprotein inhibitor, encequidar methane sulfonic acid monohydrate (HM30181A), was used as a positive control. 10 μL of the 11× dilutions was added to the appropriate well, P-glycoprotein inhibition wells comprised Compound+docetaxel (or Compound+paclitaxel). The compound toxicity wells comprised 1280 nM Compound+10 μL of culture media. Treated the cells were incubated for 3 days at 37° C. 5% CO2.
To value (reflecting the starting number of cells upon Compound treatment) of 3 wells of cells was determined by performing the following steps 1-4 as described below.
1. 10 μL MTT (5 mg/mL in PBS) was added to each well and incubated for 1.5 hours at 37° C. 5% CO2.
2. Culture media was removed and 100 μL of DMSO was added to each well.
3. The plate was gently shook until all purple MTT formazan crystals were dissolved. OD540 was then measured using microplate reader.
4. Cell growth percentage was calculated with the following equation: Cell growth percentage=(T−T0)/(C−T0)×100%, wherein T is OD of the test well exposure to Compound; C is OD of the control well without Compound treatment; and T0 is OD at time zero.

CYP3A4 = CYP3A4 (Homo sapiens (Human), UniProt P08684); assay: CYP3A4 inhibitory activity: Luciferin-IPA (P450-Glo) assay with human liver microsome
Experimental: Cytochrome P450 activity may be determined by a P450-Glo™ assay (Promega) with human liver microsomes wherein the compounds of the present disclosure are dosed at different concentrations in buffer and incubated. Dose-response curve and IC50 data may be obtained and fit to a nonlinear regression model using GraphPad Prism software (v6.0).
The standard final Compound concentrations were 37, 111, 333, 1000, and 3000 nM. 12.5 μL of the Compound dilutions were transferred to a white 96-well plate. 1450 μL (enough for a whole plate) of 4× assay buffer (400 mM potassium phosphate buffer (10 mL 1M potassium phosphate buffer: 8.02 mL 1M K2HPO4+1.98 mL 1M KH2PO4 (1.4 g K2HPO4+0.27 g KH2PO4 in 10 mL H2O), 32 μM Luciferin-IPA (Promega V9002)) 580 μl of 1 M K3PO4 buffer, 870 μL H2O, 14 μL of 3 mM Luciferin-IPA, and 18 μL of human liver microsome (Sigma M0317-1VL) was made. 12.5 μL of 4× assay buffer was added to each well. For the well of blank control, 12.5 μL of 4× assay buffer without liver microsome was added. The plate was incubated at room temperature for 15 minutes. 2.75 mL NADPH buffer was made as follows: 2.42 mL H2O, 275 μL solution A and 55 μL solution B (NADPH regeneration system, Promega V9510). 25 μL of the buffer was added to each well. The plates were incubated at 37° C. for 11 minutes. 50 μL of luciferin detection reagent (Promega V9002) was added and the plates were incubated at room temperature for 5 minutes. The plate was read with a luminometer.
The dose-response curve and IC50 were obtained by fitting data to nonlinear regression model using GraphPad Prism software (v6.0).

Sequence of P-glycoprotein (P08183 whole entry): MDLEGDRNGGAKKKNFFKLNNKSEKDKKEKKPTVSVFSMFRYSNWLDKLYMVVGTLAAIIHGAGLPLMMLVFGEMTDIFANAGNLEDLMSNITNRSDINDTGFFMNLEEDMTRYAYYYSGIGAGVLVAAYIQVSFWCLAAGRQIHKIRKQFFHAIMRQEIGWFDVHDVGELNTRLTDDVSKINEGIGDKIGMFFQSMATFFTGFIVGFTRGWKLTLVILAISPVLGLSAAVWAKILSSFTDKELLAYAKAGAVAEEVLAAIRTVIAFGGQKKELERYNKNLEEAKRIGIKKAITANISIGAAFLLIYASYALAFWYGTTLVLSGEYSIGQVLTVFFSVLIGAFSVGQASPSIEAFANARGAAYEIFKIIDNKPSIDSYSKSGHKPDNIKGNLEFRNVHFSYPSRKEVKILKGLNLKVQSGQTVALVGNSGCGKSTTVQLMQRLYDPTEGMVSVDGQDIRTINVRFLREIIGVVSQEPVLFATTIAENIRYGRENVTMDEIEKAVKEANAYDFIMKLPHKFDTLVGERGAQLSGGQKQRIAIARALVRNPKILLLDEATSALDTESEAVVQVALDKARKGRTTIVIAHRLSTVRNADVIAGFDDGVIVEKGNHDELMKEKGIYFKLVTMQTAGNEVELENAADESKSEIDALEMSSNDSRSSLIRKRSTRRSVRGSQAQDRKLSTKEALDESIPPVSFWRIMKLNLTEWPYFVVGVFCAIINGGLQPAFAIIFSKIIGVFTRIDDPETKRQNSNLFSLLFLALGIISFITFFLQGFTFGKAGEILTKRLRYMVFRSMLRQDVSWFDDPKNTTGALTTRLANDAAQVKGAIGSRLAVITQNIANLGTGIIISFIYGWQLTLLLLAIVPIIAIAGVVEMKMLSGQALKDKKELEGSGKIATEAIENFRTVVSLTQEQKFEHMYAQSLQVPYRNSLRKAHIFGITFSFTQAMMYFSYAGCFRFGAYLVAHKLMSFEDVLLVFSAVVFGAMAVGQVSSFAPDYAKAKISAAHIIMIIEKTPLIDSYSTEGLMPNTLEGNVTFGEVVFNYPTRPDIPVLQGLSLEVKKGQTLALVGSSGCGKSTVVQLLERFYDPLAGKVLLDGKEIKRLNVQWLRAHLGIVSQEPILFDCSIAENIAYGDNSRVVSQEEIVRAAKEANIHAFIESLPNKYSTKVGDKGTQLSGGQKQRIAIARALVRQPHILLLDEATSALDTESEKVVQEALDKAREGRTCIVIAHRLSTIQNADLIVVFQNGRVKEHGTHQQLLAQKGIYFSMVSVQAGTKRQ
Sequence of CYP3A4 (P08684 whole entry): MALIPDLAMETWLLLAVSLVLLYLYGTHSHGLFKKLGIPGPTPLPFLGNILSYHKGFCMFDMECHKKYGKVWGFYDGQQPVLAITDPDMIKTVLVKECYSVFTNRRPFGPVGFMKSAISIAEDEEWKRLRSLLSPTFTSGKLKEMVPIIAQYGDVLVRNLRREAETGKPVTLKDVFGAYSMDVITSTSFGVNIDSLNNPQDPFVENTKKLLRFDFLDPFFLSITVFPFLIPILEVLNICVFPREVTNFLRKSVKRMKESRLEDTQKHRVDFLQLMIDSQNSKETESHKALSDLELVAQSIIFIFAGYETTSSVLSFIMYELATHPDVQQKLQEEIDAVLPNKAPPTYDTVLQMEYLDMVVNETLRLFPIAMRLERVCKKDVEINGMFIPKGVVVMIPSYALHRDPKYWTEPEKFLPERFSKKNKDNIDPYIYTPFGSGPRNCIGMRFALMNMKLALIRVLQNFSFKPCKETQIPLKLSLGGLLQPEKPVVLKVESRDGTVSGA

Which EC50 (P-glycoprotein) does the source give for `COc1cc2c(cc1OC)CN(CCc1ccc(-n3nnc(-c4cc(OC)c(OC)cc4NC(=O)c4cc(=O)c5cc(-n6ccnc6)ccc5o4)n3)cc1)CC2` [Compound 20, N-(2-(2-(4-(2-(6,7-Dimethoxy-3,4-dihydroisoquinolin-2(1H)-yl)ethyl)phenyl)-2H-tetrazol-5-yl)-4,5-dimethoxyphenyl)-6-(1H-imidazol-1-yl)-4-oxo-4H-chromene-2-carboxamide] here?
Its EC50 is > 1000 nM.

And the IC50 (CYP3A4; human, microsomes, 11 min)?
The IC50 was > 1000 nM.

Which EC50 (P-glycoprotein) does the source give for `COc1cc2c(cc1OC)CN(CCc1ccc(-n3nnc(-c4cc(OC)c(OC)cc4NC(=O)c4ccc(-c5ccncc5)cc4)n3)cc1)CC2` [Compound 21, N-(2-(2-(4-(2-(6,7-Dimethoxy-3,4-dihydroisoquinolin-2(1H)-yl)ethyl)phenyl)-2H-tetrazol-5-yl)-4,5-dimethoxyphenyl)-4-(pyridin-4-yl)benzamide] here?
Its EC50 is < 100 nM.

And the IC50 (CYP3A4; human, microsomes, 11 min)?
Its IC50 is > 1000 nM.

What does the source list for `COc1cc2c(cc1OC)CN(CCc1ccc(-n3nnc(-c4cc(OC)c(OC)cc4NC(=O)c4ccc(-c5cccnc5)cc4)n3)cc1)CC2` [Compound 22, N-(2-(2-(4-(2-(6,7-Dimethoxy-3,4-dihydroisoquinolin-2(1H)-yl)ethyl)phenyl)-2H-tetrazol-5-yl)-4,5-dimethoxyphenyl)-4-(pyridin-3-yl)benzamide]?
EC50 (P-glycoprotein): 100 to 250 nM; IC50 (CYP3A4; human, microsomes, 11 min): > 1000 nM

What does the source list for `COc1cc2c(cc1OC)CN(CCc1ccc(-n3nnc(-c4cc(OC)c(OC)cc4NC(=O)c4ccc(-n5ccnc5)cc4)n3)cc1)CC2` [Compound 23, N-(2-(2-(4-(2-(6,7-Dimethoxy-3,4-dihydroisoquinolin-2(1H)-yl)ethyl)phenyl)-2H-tetrazol-5-yl)-4,5-dimethoxyphenyl)-4-(1H-imidazol-1-yl)benzamide]?
EC50 (P-glycoprotein): 250 to 500 nM; IC50 (CYP3A4): 500 to 1000 nM

Which results are given for `COc1cc2c(cc1OC)CN(CCc1ccc(-n3nnc(-c4cc(Oc5cccnc5)ccc4NC(=O)c4cc(=O)c5ccccc5o4)n3)cc1)CC2` [Compound 24, N-(2-(2-(4-(2-(6,7-Dimethoxy-3,4-dihydroisoquinolin-2(1H)-yl)ethyl)phenyl)-2H-tetrazol-5-yl)-4-(pyridin-3-yloxy)phenyl)-4-oxo-4H-chromene-2-carboxamide]?
EC50 (P-glycoprotein): < 100 nM; IC50 (CYP3A4; human, microsomes, 11 min): > 1000 nM

With `COc1cc2c(cc1OC)CN(CCc1ccc(-n3nnc(-c4cc(Oc5ccncc5)ccc4NC(=O)c4cc(=O)c5ccccc5o4)n3)cc1)CC2` [Compound 25, N-(2-(2-(4-(2-(6,7-Dimethoxy-3,4-dihydroisoquinolin-2(1H)-yl)ethyl)phenyl)-2H-tetrazol-5-yl)-4-(pyridin-4-yloxy)phenyl)-4-oxo-4H-chromene-2-carboxamide] as the compound, how does the EC50 (P-glycoprotein) read?
The EC50 was 500 to 1000 nM.

And the IC50 (CYP3A4; human, microsomes, 11 min)?
The IC50 was > 1000 nM.

Which results are given for `COc1cc2c(cc1OC)CN(CCc1ccc(-n3nnc(-c4cc(OCc5ccncc5)ccc4NC(=O)c4cc(=O)c5ccccc5o4)n3)cc1)CC2` [Compound 26, N-(2-(2-(4-(2-(6,7-Dimethoxy-3,4-dihydroisoquinolin-2(1H)-yl)ethyl)phenyl)-2H-tetrazol-5-yl)-4-(pyridin-4-ylmethoxy)phenyl)-4-oxo-4H-chromene-2-carboxamide]?
EC50 (P-glycoprotein): < 100 nM; IC50 (CYP3A4; human, microsomes, 11 min): > 1000 nM

`COc1cc2c(cc1OC)CN(CCc1ccc(-n3nnc(-c4cc(OCc5cccnc5)ccc4NC(=O)c4cc(=O)c5ccccc5o4)n3)cc1)CC2` [Compound 27, N-(2-(2-(4-(2-(6,7-Dimethoxy-3,4-dihydroisoquinolin-2(1H)-yl)ethyl)phenyl)-2H-tetrazol-5-yl)-4-(pyridin-3-ylmethoxy)phenyl)-4-oxo-4H-chromene-2-carboxamide] was tested. Which EC50 (P-glycoprotein) did it give?
The EC50 was < 100 nM.

What about the IC50 (CYP3A4; human, microsomes, 11 min) of the same compound?
The IC50 was > 1000 nM.

`COc1cc2c(cc1OC)CN(CCc1ccc(-n3nnc(-c4cc(OCCc5cccnc5)ccc4NC(=O)c4cc(=O)c5ccccc5o4)n3)cc1)CC2` [Compound 28, N-(2-(2-(4-(2-(6,7-Dimethoxy-3,4-dihydroisoquinolin-2(1H)-yl)ethyl)phenyl)-2H-tetrazol-5-yl)-4-(2-(pyridin-3-yl)ethoxy)phenyl)-4-oxo-4H-chromene-2-carboxamide] was tested. Which EC50 (P-glycoprotein) did it give?
Its EC50 is 100 to 250 nM.

What about the IC50 (CYP3A4) of the same compound?
Its IC50 is 500 to 1000 nM.

With `COc1cc2c(cc1OC)CN(CCc1ccc(-n3nnc(-c4cc(OCc5ccccc5)c(OC)cc4NC(=O)c4cc(=O)c5ccccc5o4)n3)cc1)CC2` [Compound 29, N-(4-(Benzyloxy)-2-(2-(4-(2-(6,7-dimethoxy-3,4-dihydroisoquinolin-2(1H)-yl)ethyl)phenyl)-2H-tetrazol-5-yl)-5-methoxyphenyl)-4-oxo-4H-chromene-2-carboxamide] as the compound, how does the EC50 (P-glycoprotein) read?
Its EC50 is < 100 nM.

What about the IC50 (CYP3A4; human, microsomes, 11 min) of the same compound?
The IC50 was > 1000 nM.

What does the source list for `COc1cc2c(cc1OC)CN(CCc1ccc(-n3nnc(-c4cc(OCc5cccnc5)c(OC)cc4NC(=O)c4cc(=O)c5ccccc5o4)n3)cc1)CC2` [Compound 30, N-(2-(2-(4-(2-(6,7-Dimethoxy-3,4-dihydroisoquinolin-2(1H)-yl)ethyl)phenyl)-2H-tetrazol-5-yl)-5-methoxy-4-(pyridin-3-ylmethoxy)phenyl)-4-oxo-4H-chromene-2-carboxamide]?
EC50 (P-glycoprotein): < 100 nM; IC50 (CYP3A4; human, microsomes, 11 min): > 1000 nM

How did the EC50 (P-glycoprotein) turn out when `COc1cc2c(cc1OC)CN(CCc1ccc(-n3nnc(-c4cc(OC)c(OC)cc4NC(=O)c4cc(=O)c5ccccc5o4)n3)cc1)CC2` [Encequidar methanesulfonate monohydrate, reference compound] was run?
The EC50 was < 100 nM.

And the IC50 (CYP3A4; human, microsomes, 11 min)?
Its IC50 is > 1000 nM.
